We go through 13 molecules from ChEMBL document CHEMBL1121499, “Experimental antiulcer drugs.4. 1,3-Disubstituted 2,4,5,6-tetrahydro-4,6,6 -trimethyl-2-phenylcyclopenta[c]pyrrole-4-carboxamides” (J Med Chem, 1980).

Common to all, as to set-up: dose 100 mg/kg, route oral
Settings in all cases: in vivo, po

Data set [1] concerns Rattus norvegicus. In words: Tested for gastric antisecretory activity in the pyloric ligated rat by observing the pH of gastric contents at dose 100 mg/kg orally 1 hr prior to the 5-h pyloric ligation period; pH < 2 is inactive. It is filed as ADME, organism-based, Stomach.
Data set [2] concerns Rattus norvegicus. As to the kind of experiment: Tested for gastric antisecretory activity in the pyloric ligated rat by observing the pH of gastric contents at dose 100 mg/kg orally 1 hr prior to the 5-h pyloric ligation period. It is filed as ADME, organism-based, Stomach.
Data set [3] relates to Rattus norvegicus. In words: Tested for gastric antisecretory activity in the pyloric ligated rat by observing the pH of gastric contents at dose 100 mg/kg orally 1 h prior to the 5-h pyloric ligation period; Inactive. It is filed as organism-based, Stomach.

With `CC1(C)CC(C)(C(N)=O)c2cn(-c3ccccc3)cc21` (stereo not drawn), the pH in the data set on Rattus norvegicus [1] is on record as 1.1.

Take `CC1(C)CC(C)(C(N)=O)c2cn(-c3ccccc3)c(C=O)c21` (stereo not drawn): the pH with Rattus norvegicus [2] is reported as 1.5.

The molecule `CC1(C)CC(C)(C(N)=O)c2c1c(C=O)n(-c1ccccc1)c2C=O` (stereo not drawn) returned a pH with Rattus norvegicus [2] of 1.2.

Consider `Cc1c2c(c(CO)n1-c1ccccc1)C(C)(C(N)=O)CC2(C)C` (stereo not drawn), for which the pH in the data set on Rattus norvegicus [2] turned out to be 7.

As to `Cc1c2c(cn1-c1ccccc1)C(C)(C)CC2(C)C(N)=O` (stereo not drawn), the pH in the data set with Rattus norvegicus [3] is given as 1.2.

In the data set on Rattus norvegicus [2], `Cc1c2c(c(C=O)n1-c1ccccc1)C(C)(C)CC2(C)C(N)=O` (stereo not drawn) yielded a pH of 1.5.

In the data set with Rattus norvegicus [1], `CCc1c2c(c(CC)n1-c1ccccc1)C(C)(C(N)=O)CC2(C)C` (stereo not drawn) returned a pH of 1.1.

The molecule `Cc1c2c(c(C)n1-c1ccccc1)C(C)(C(N)=O)CC2(C)C` (stereo not drawn) yielded a pH in the data set with Rattus norvegicus [2] of 6.2.

For the molecule `Cc1c2c(c(C=O)n1-c1ccccc1)C(C)(C(N)=O)CC2(C)C` (stereo not drawn), the pH with Rattus norvegicus [2] is 1.2.

Regarding `Cc1c2c(c(CO)n1-c1ccccc1)C(C)(C)CC2(C)C(N)=O` (stereo not drawn), the pH with Rattus norvegicus [2] is on record as 5.7.

Turning to `Cc1c2c(cn1-c1ccccc1)C(C)(C(N)=O)CC2(C)C` (stereo not drawn), the pH in the data set on Rattus norvegicus [2] was found to be 2.6.

Turning to `CC1(C)CC(C)(C(N)=O)c2cn(-c3ccccc3)c(CO)c21` (stereo not drawn), the pH in the data set with Rattus norvegicus [2] is listed as 6.4.

The molecule `CC1(C)CC(C)(C(N)=O)c2c1c(CO)n(-c1ccccc1)c2CO` (stereo not drawn) gave a pH in the data set with Rattus norvegicus [1] of 1.2.
